Measurements from ChEMBL document CHEMBL1133944, “Identification of a series of oxadiazole-substituted alpha-isopropoxy phenylpropanoic acids with activity on PPARalpha, PPARgamma, and PPARdelta” (Bioorg Med Chem Lett, 2001).

biological target: T1, Peroxisome proliferator-activated receptor delta (Homo sapiens, UniProt Q03181); assay: Agonist activity against human PPAR delta receptor in CV-1 cell was determined; type: functional, cell-based
T1 sequence (Q03181 whole entry): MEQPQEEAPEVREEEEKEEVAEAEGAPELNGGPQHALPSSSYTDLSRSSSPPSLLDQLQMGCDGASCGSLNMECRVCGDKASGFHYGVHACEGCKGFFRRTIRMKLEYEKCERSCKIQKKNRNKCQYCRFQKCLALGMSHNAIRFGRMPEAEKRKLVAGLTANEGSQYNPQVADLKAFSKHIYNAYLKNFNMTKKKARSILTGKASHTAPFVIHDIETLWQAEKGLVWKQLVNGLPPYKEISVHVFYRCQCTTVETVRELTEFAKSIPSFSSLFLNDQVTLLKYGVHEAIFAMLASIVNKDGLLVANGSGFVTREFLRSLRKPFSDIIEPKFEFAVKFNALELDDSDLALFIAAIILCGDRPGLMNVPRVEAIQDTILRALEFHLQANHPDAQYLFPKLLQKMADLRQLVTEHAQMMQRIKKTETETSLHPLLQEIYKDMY

Structure (SMILES) | EC50 [nM]
CC(C)OC(Cc1ccc(OCc2noc(-c3ccc(C(F)(F)F)cc3)n2)cc1)C(=O)O (stereo not drawn) | 500
CC(C)OC(Cc1ccc(OCCc2noc(-c3cccc(Cl)c3)n2)cc1)C(=O)O (stereo not drawn) | 100
CC(C)OC(Cc1ccc(OCc2noc(-c3cc(C(F)(F)F)cc(C(F)(F)F)c3)n2)cc1)C(=O)O (stereo not drawn) | 320
CC(C)OC(Cc1ccc(OCc2noc(-c3ccc(F)cc3)n2)cc1)C(=O)O (stereo not drawn) | 7900
CC(C)OC(Cc1ccc(OCc2noc(-c3ccccc3)n2)cc1)C(=O)O (stereo not drawn) | 10000
CC(C)OC(Cc1ccc(OCc2noc(-c3ccc(C(C)(C)C)cc3)n2)cc1)C(=O)O (stereo not drawn) | 5000
CC(C)OC(Cc1ccc(OCc2noc(-c3cc(F)cc(F)c3)n2)cc1)C(=O)O (stereo not drawn) | 160
CC(C)OC(Cc1ccc(OCCc2noc(-c3cccc(F)c3)n2)cc1)C(=O)O (stereo not drawn) | 4000
CC(C)OC(Cc1ccc(OCc2noc(-c3ccc(C(C)C)cc3)n2)cc1)C(=O)O (stereo not drawn) | 7900
CC(C)OC(Cc1ccc(OCc2noc(-c3cccc(F)c3)n2)cc1)C(=O)O (stereo not drawn) | 7900
Cc1ccc(-c2nc(COc3ccc(CC(OC(C)C)C(=O)O)cc3)no2)cc1 (stereo not drawn) | 2500
CC(C)OC(Cc1ccc(OCc2noc(-c3ccc(Br)cc3)n2)cc1)C(=O)O (stereo not drawn) | 790
CC(C)OC(Cc1ccc(OCc2noc(-c3ccc(OC(F)(F)F)cc3)n2)cc1)C(=O)O (stereo not drawn) | 7900
Cc1cccc(-c2nc(COc3ccc(CC(OC(C)C)C(=O)O)cc3)no2)c1 (stereo not drawn) | 1600
CC(C)OC(Cc1ccc(OCCc2noc(-c3cccc(C(F)(F)F)c3)n2)cc1)C(=O)O (stereo not drawn) | 500
CC(C)OC(Cc1ccc(OCc2noc(-c3ccc(Cl)cc3)n2)cc1)C(=O)O (stereo not drawn) | 500
Cc1ccccc1-c1nc(COc2ccc(CC(OC(C)C)C(=O)O)cc2)no1 (stereo not drawn) | 1600

biological target: T2, Peroxisome proliferator-activated receptor gamma (Homo sapiens, UniProt P37231); assay: Agonist activity against human Peroxisome proliferator activated receptor gamma receptor in CV-1 cell was determined; type: functional, cell-based
T2 sequence (P37231 whole entry): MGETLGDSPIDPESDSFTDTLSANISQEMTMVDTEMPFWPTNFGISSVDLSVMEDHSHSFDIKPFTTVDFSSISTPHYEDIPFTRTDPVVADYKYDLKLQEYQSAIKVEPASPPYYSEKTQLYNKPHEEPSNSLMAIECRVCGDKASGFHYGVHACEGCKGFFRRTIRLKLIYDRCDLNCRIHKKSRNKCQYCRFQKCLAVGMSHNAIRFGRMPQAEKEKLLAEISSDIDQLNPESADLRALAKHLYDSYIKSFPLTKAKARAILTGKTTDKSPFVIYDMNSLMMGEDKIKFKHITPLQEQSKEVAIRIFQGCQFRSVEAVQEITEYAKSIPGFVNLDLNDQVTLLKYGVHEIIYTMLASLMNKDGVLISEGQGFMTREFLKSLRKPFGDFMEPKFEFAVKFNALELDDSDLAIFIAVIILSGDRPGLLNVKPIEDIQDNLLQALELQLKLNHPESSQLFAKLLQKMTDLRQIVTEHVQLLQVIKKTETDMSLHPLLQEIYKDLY

Structure (SMILES) | EC50 [nM]
CC(C)OC(Cc1ccc(OCc2noc(-c3ccc(C(F)(F)F)cc3)n2)cc1)C(=O)O (stereo not drawn) | 25
CC(C)OC(Cc1ccc(OCCc2noc(-c3cccc(Cl)c3)n2)cc1)C(=O)O (stereo not drawn) | 4
CC(C)OC(Cc1ccc(OCCc2noc(-c3ccc(Cl)cc3)n2)cc1)C(=O)O (stereo not drawn) | 25
CC(C)OC(Cc1ccc(OCc2noc(-c3cc(C(F)(F)F)cc(C(F)(F)F)c3)n2)cc1)C(=O)O (stereo not drawn) | 32
CC(C)OC(Cc1ccc(OCc2noc(-c3ccc(F)cc3)n2)cc1)C(=O)O (stereo not drawn) | 200
CC(C)OC(Cc1ccc(OCc2noc(-c3ccccc3)n2)cc1)C(=O)O (stereo not drawn) | 79
CC(C)OC(Cc1ccc(OCc2noc(-c3ccc(C(C)(C)C)cc3)n2)cc1)C(=O)O (stereo not drawn) | 3
CC(C)OC(Cc1ccc(OCc2noc(-c3cc(F)cc(F)c3)n2)cc1)C(=O)O (stereo not drawn) | 100
CC(C)OC(Cc1ccc(OCCc2noc(-c3cccc(F)c3)n2)cc1)C(=O)O (stereo not drawn) | 2
CC(C)OC(Cc1ccc(OCc2noc(C3CCCCC3)n2)cc1)C(=O)O (stereo not drawn) | 230
CC(C)OC(Cc1ccc(OCc2noc(-c3ccc(C(C)C)cc3)n2)cc1)C(=O)O (stereo not drawn) | 4
CC(C)OC(Cc1ccc(OCc2noc(-c3cccc(F)c3)n2)cc1)C(=O)O (stereo not drawn) | 100
Cc1ccc(-c2nc(COc3ccc(CC(OC(C)C)C(=O)O)cc3)no2)cc1 (stereo not drawn) | 16
CC(C)OC(Cc1ccc(OCc2noc(-c3ccc(Br)cc3)n2)cc1)C(=O)O (stereo not drawn) | 32
CC(C)OC(Cc1ccc(OCc2noc(-c3ccc(OC(F)(F)F)cc3)n2)cc1)C(=O)O (stereo not drawn) | 63
Cc1cccc(-c2nc(COc3ccc(CC(OC(C)C)C(=O)O)cc3)no2)c1 (stereo not drawn) | 50
CC(C)OC(Cc1ccc(OCCc2noc(-c3cccc(C(F)(F)F)c3)n2)cc1)C(=O)O (stereo not drawn) | 6
CC(C)OC(Cc1ccc(OCCc2noc(-c3ccc(F)cc3)n2)cc1)C(=O)O (stereo not drawn) | 40
CC(C)OC(Cc1ccc(OCc2noc(-c3ccc(Cl)cc3)n2)cc1)C(=O)O (stereo not drawn) | 20
CC(C)OC(Cc1ccc(OCCc2noc(-c3ccccc3)n2)cc1)C(=O)O (stereo not drawn) | 13
Cc1ccccc1-c1nc(COc2ccc(CC(OC(C)C)C(=O)O)cc2)no1 (stereo not drawn) | 100

biological target: T2, Peroxisome proliferator-activated receptor gamma; assay: Agonist activity against human peroxisome proliferator activated receptor gamma in CV-1 cell was determined; type: functional, cell-based

Structure (SMILES) | EC50 [nM]
CC(C)OC(Cc1ccc(OCCc2noc(-c3ccccc3C(F)(F)F)n2)cc1)C(=O)O (stereo not drawn) | 160
CC(C)OC(Cc1ccc(OCc2noc(-c3cc(C(F)(F)F)cc(C(F)(F)F)c3)n2)cc1)C(=O)O (stereo in doubt; (+)1n) [listing 1 of 2 here] | 630
CC(C)OC(Cc1ccc(OCc2noc(-c3cc(C(F)(F)F)cc(C(F)(F)F)c3)n2)cc1)C(=O)O (stereo in doubt; -1n) [listing 1 of 2 here] | 32

biological target: T2, Peroxisome proliferator-activated receptor gamma; assay: Agonist activity against human peroxisome proliferator activated receptor gamma was determined; type: functional

Structure (SMILES) | EC50 [nM]
CC(C)OC(Cc1ccc(OCCc2noc(-c3cc(C(F)(F)F)cc(C(F)(F)F)c3)n2)cc1)C(=O)O (stereo not drawn) | 4

biological target: T3, Peroxisome proliferator-activated receptor delta (Homo sapiens) (UniProt Q03181); assay: Percent activation for human Peroxisome proliferator activated receptor delta; type: functional
T3 sequence (whole entry): T1 sequence (Q03181 whole entry)

Structure (SMILES) | Activation [%]
CC(C)OC(Cc1ccc(OCCc2noc(-c3cc(C(F)(F)F)cc(C(F)(F)F)c3)n2)cc1)C(=O)O (stereo not drawn) | < 40
CC(C)OC(Cc1ccc(OCc2noc(-c3cc(C(F)(F)F)cc(C(F)(F)F)c3)n2)cc1)C(=O)O (stereo in doubt; (+)1n) [listing 2 of 2 here] | 40
CC(C)OC(Cc1ccc(OCc2noc(-c3cc(C(F)(F)F)cc(C(F)(F)F)c3)n2)cc1)C(=O)O (stereo in doubt; -1n) [listing 2 of 2 here] | 40

biological target: T1, Peroxisome proliferator-activated receptor delta; assay: Agonist activity against human Peroxisome proliferator activated receptor delta in CV-1 cell was determined; type: functional, cell-based

Structure (SMILES) | EC50 [nM]
CC(C)OC(Cc1ccc(OCCc2noc(-c3ccccc3C(F)(F)F)n2)cc1)C(=O)O (stereo not drawn) | 2500
CC(C)OC(Cc1ccc(OCc2noc(-c3cc(C(F)(F)F)cc(C(F)(F)F)c3)n2)cc1)C(=O)O (stereo in doubt; (+)1n) [listing 1 of 2 here] | 790
CC(C)OC(Cc1ccc(OCc2noc(-c3cc(C(F)(F)F)cc(C(F)(F)F)c3)n2)cc1)C(=O)O (stereo in doubt; -1n) [listing 1 of 2 here] | 630

biological target: T4, Peroxisome proliferator-activated receptor alpha (Homo sapiens, UniProt Q07869); assay: Agonist activity against human Peroxisome proliferator activated receptor alpha in CV-1 cell was determined; type: functional, cell-based
T4 sequence (Q07869 whole entry): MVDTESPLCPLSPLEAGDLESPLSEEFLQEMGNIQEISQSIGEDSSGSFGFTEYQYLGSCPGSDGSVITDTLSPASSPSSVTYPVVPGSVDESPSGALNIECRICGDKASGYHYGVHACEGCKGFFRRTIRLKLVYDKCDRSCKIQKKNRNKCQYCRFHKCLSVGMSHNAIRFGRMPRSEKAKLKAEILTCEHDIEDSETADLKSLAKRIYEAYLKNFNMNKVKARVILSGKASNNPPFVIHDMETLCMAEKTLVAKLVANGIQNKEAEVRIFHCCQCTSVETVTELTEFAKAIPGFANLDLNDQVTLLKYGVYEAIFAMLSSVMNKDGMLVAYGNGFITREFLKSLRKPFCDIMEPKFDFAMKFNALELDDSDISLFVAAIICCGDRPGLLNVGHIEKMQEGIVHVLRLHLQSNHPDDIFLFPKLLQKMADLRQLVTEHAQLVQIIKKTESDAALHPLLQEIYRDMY

Structure (SMILES) | EC50 [nM]
CC(C)OC(Cc1ccc(OCCc2noc(-c3ccccc3C(F)(F)F)n2)cc1)C(=O)O (stereo not drawn) | 400
CC(C)OC(Cc1ccc(OCc2noc(-c3cc(C(F)(F)F)cc(C(F)(F)F)c3)n2)cc1)C(=O)O (stereo in doubt; (+)1n) [listing 1 of 2 here] | 2500
CC(C)OC(Cc1ccc(OCc2noc(-c3cc(C(F)(F)F)cc(C(F)(F)F)c3)n2)cc1)C(=O)O (stereo in doubt; -1n) [listing 1 of 2 here] | 4

biological target: T4, Peroxisome proliferator-activated receptor alpha; assay: Agonist activity against human Peroxisome proliferator activated receptor alpha receptor in CV-1 cell was determined; type: functional, cell-based

Structure (SMILES) | EC50 [nM]
CC(C)OC(Cc1ccc(OCc2noc(-c3ccc(C(F)(F)F)cc3)n2)cc1)C(=O)O (stereo not drawn) | 32
CC(C)OC(Cc1ccc(OCCc2noc(-c3cccc(Cl)c3)n2)cc1)C(=O)O (stereo not drawn) | 320
CC(C)OC(Cc1ccc(OCCc2noc(-c3ccc(Cl)cc3)n2)cc1)C(=O)O (stereo not drawn) | 400
CC(C)OC(Cc1ccc(OCc2noc(-c3cc(C(F)(F)F)cc(C(F)(F)F)c3)n2)cc1)C(=O)O (stereo not drawn) | 6
CC(C)OC(Cc1ccc(OCc2noc(-c3ccc(F)cc3)n2)cc1)C(=O)O (stereo not drawn) | 160
CC(C)OC(Cc1ccc(OCc2noc(-c3ccccc3)n2)cc1)C(=O)O (stereo not drawn) | 160
CC(C)OC(Cc1ccc(OCc2noc(-c3ccc(C(C)(C)C)cc3)n2)cc1)C(=O)O (stereo not drawn) | 40
CC(C)OC(Cc1ccc(OCc2noc(-c3cc(F)cc(F)c3)n2)cc1)C(=O)O (stereo not drawn) | 40
CC(C)OC(Cc1ccc(OCCc2noc(-c3cccc(F)c3)n2)cc1)C(=O)O (stereo not drawn) | 500
CC(C)OC(Cc1ccc(OCc2noc(C3CCCCC3)n2)cc1)C(=O)O (stereo not drawn) | 240
CC(C)OC(Cc1ccc(OCc2noc(-c3ccc(C(C)C)cc3)n2)cc1)C(=O)O (stereo not drawn) | 13
CC(C)OC(Cc1ccc(OCc2noc(-c3cccc(F)c3)n2)cc1)C(=O)O (stereo not drawn) | 79
Cc1ccc(-c2nc(COc3ccc(CC(OC(C)C)C(=O)O)cc3)no2)cc1 (stereo not drawn) | 25
CC(C)OC(Cc1ccc(OCc2noc(-c3ccc(Br)cc3)n2)cc1)C(=O)O (stereo not drawn) | 40
CC(C)OC(Cc1ccc(OCc2noc(-c3ccc(OC(F)(F)F)cc3)n2)cc1)C(=O)O (stereo not drawn) | 20
Cc1cccc(-c2nc(COc3ccc(CC(OC(C)C)C(=O)O)cc3)no2)c1 (stereo not drawn) | 79
CC(C)OC(Cc1ccc(OCCc2noc(-c3cccc(C(F)(F)F)c3)n2)cc1)C(=O)O (stereo not drawn) | 200
CC(C)OC(Cc1ccc(OCCc2noc(-c3ccc(F)cc3)n2)cc1)C(=O)O (stereo not drawn) | 790
CC(C)OC(Cc1ccc(OCc2noc(-c3ccc(Cl)cc3)n2)cc1)C(=O)O (stereo not drawn) | 13
CC(C)OC(Cc1ccc(OCCc2noc(-c3ccccc3)n2)cc1)C(=O)O (stereo not drawn) | 2000
Cc1ccccc1-c1nc(COc2ccc(CC(OC(C)C)C(=O)O)cc2)no1 (stereo not drawn) | 40

biological target: T4, Peroxisome proliferator-activated receptor alpha; assay: Agonist activity against human Peroxisome proliferator activated receptor alpha was determined; type: functional

Structure (SMILES) | EC50 [nM]
CC(C)OC(Cc1ccc(OCCc2noc(-c3cc(C(F)(F)F)cc(C(F)(F)F)c3)n2)cc1)C(=O)O (stereo not drawn) | 50
